Experimental data: ChEMBL document CHEMBL1833800, “Synthesis, preliminary biological evaluation and molecular modeling of some new heterocyclic inhibitors of TACE” (Eur J Med Chem, 2011)

Biological target: Disintegrin and metalloproteinase domain-containing protein 17 (Homo sapiens, UniProt P78536)
Test: Inhibition of TACE in human whole blood assessed as reduction of LPS-induced TNFalpha production pretreated 15 mins before LPS challenge measured 5 hrs post LPS challenge

Chain of Disintegrin and metalloproteinase domain-containing protein 17 (P78536 whole entry, the tested form may be a part): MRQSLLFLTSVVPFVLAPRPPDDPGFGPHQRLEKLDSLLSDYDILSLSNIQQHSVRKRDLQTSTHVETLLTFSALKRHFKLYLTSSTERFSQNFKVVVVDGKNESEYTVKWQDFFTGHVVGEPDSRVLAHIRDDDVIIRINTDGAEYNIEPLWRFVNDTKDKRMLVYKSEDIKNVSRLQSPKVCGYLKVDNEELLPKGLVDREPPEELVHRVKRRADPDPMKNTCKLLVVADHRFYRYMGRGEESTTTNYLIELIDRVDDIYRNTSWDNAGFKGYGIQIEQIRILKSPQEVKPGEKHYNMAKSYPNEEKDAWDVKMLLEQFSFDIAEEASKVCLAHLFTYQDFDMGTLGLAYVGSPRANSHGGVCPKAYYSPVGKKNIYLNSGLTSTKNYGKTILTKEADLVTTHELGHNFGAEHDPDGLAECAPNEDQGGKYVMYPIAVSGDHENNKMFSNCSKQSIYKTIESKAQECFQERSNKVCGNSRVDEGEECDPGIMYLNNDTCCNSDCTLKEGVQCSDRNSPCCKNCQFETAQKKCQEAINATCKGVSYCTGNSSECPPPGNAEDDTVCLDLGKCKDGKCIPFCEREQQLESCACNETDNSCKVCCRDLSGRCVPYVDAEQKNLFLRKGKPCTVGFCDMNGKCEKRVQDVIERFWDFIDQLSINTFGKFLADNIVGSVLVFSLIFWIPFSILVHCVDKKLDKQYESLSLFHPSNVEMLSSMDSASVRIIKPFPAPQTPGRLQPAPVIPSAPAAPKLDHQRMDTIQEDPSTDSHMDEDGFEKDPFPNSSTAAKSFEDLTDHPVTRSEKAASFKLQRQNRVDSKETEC

Structure (SMILES) | IC50
Cc1nc2ccccc2n1Cc1ccc(C(=O)N[C@@H]2CCOC[C@@H]2C(=O)NO)cn1 | 80 nM
O=C(N[C@@H]1CCOC[C@@H]1C(=O)NO)c1ccc(Cn2c(C(F)(F)F)nc3ccccc32)nc1 | 160 nM
Cc1nc2ccccc2n1Cc1ccc(C(=O)N[C@@H]2CCCC[C@@H]2C(=O)NO)cn1 | 126 nM
O=C(N[C@@H]1CCCC[C@@H]1C(=O)NO)c1ccc(Cn2c(C(F)(F)F)nc3ccccc32)nc1 | 280 nM
Cc1nc2ccccc2n1Cc1ccc(C(=O)N[C@@H]2CCC[C@@H]2C(=O)NO)cn1 (single isomer, unassigned) | 70 nM
O=C(N[C@@H]1CCC[C@@H]1C(=O)NO)c1ccc(Cn2c(C(F)(F)F)nc3ccccc32)nc1 (single isomer, unassigned) | 74 nM
